Reference: patent US10995363B2, “Nucleotide analogs” (ABBOTT MOLECULAR INC., priority 2013, dated 2021)

What was measured:
[1] = biological target: T1, Therminator II DNA polymerase (Thermococcus sp., UniProt Q56366, A485L/D141A/E143A/Y409V); assay: Ladder fragment generation with natural dNTPs and one 3′-O-propargyl-dNTP; assay type: biochemical, Thermococcus sp. 9∘N; conditions: natural dNTPs plus one 3′-O-propargyl-dNTP, KRAS template, 50 cycles
T1 construct: purchased New England BioLabs
Method: During the development of embodiments of the technology provided herein, experiments were conducted to assess using the nucleotide analogs of the present technology to generate nucleic acid fragments that terminate at base-specific positions. In particular, reaction mixtures were produced and tested that included both natural dNTPs and each of the 3′-O-propargyl-dNTPs individually.
To test the fragment generation by 3′-O-propargyl-dTTP, a DNA fragment generation reaction mix was prepared comprising 20 mM Tris-HCl, 10 mM (NH4)SO4, 10 mM KCl, 2 mM MnCl2, 0.1% Triton X-100, 1000 μmol dATP, 1000 μmol dCTP, 1000 μmol dGTP, 1000 μmol dTTP, 200 μmol 3′-O-propargyl-dTTP, 6.25 μmol of primer R_ke2_trP1_T_bio (SEQ ID NO: 2), and 2 units of THERMINATOR II DNA polymerase (New England BioLabs) in a 25-μl final reaction volume. A volume of 0.5 μmol of the KRAS template (SEQ ID NO: 1) was used as template. The polymerase extension reaction was performed using a temperature cycling profile comprising exposing the reaction to a temperature of 95° C. for 2 minutes followed by 50 cycles of 95° C. for 15 seconds, 55° C. for 25 seconds, and 65° C. for 35 seconds.
(§1) After the polymerase extension reaction, 1 μl of the reaction mix was used directly for nucleic acid size analysis by gel electrophoresis (e.g., using an Agilent 2100 Bioanalyzer and High Sensitivity DNA Assay Chip).
Additional polymerase extension experiments were performed using the reaction conditions described above and replacing the 3′-O-propargyl-dTTP with 3′-O-propargyl-dATP, 3′-O-propargyl-dCTP, or 3′-O-propargyl dGTP.

[2] = biological target: T1, Therminator II DNA polymerase; assay: Polymerase extension assay: incorporation of 3′-O-propargyl-dNTP at the 3′ end of a primer on KRAS template; assay type: biochemical, Thermococcus sp. 9∘N; conditions: 2 mM MnCl2, KRAS template, 35 cycles, size analysis by gel electrophoresis
Method: During the development of embodiments of the technology provided herein, experiments were conducted to assess the incorporation of 3′-O-propargyl-dNTPs into a nucleic acid by a polymerase. In particular, experiments were conducted to evaluate the accurate incorporation of 3′-O-propargyl-dNTPs into a nucleic acid and to evaluate the terminating activity of the 3′-O-propargyl-dNTPs. To assess these characteristics of the nucleotide analogs provided herein, polymerase extension assays were conducted using a template nucleic acid having a sequence from human KRAS (e.g., KRAS exon 2 and flanking intron sequences) and a complementary primer (Table 2).
To test incorporation of a 3′-O-propargyl-dTTP into a nucleic acid, a polymerase extension reaction mix was assembled comprising 20 mM Tris-HCl, 10 mM (NH4)SO4, 10 mM KCl, 2 mM MnCl2, 0.1% Triton X-100, 200 μmol 3′-O-propargyl-dTTP, 6.25 μmol of primer R_ke2_trP1_T_bio (SEQ ID NO: 2), and 2 units of Therminator II DNA polymerase (New England BioLabs) in a 25-μl final reaction volume. A volume of 0.5 μmol of the KRAS template (SEQ ID NO: 1) was used as template (Table 2). The polymerase extension reaction was performed using a temperature cycling profile comprising exposing the reaction to a temperature of 95° C. for 2 minutes followed by 35 cycles of 95° C. for 15 seconds, 55° C. for 25 seconds, and 65° C. for 35 seconds.
as §1
Additional polymerase extension experiments were performed using the reaction conditions described above and replacing the 3′-O-propargyl-dTTP and the primer R_ke2_trP1_T_bio with 3′-O-propargyl-dATP and the primer R_ke2_trP1_A bio (SEQ ID NO: 3); 3′-O-propargyl-dCTP and the primer R_ke2_trP1_C bio (SEQ ID NO: 5); and 3′-O-propargyl dGTP and the primer R_ke2_trP1_G bio (SEQ ID NO: 4).

3′-O-propargyl-dNTP = assay: Polymerase screening by nucleotide extension assay (incorporation of 3′-O-propargyl-dNTP as substrate); assay type: biochemical; set-up: key: a minus (“−”) indicates that the polymerase did not produce a detectable product incorporating the 3′-O-propargyl dNTP; a single plus (“+”) indicates that the polymerase produced a detectable product incorporating the 3′-O-propargyl dNTP; three plusses (“+++”) indicates that the polymerase produced a substantial amount of 3′-O-propargyl dNTP incorporation product
Source text: For example, in some exemplary assays and/or embodiments, compatible polymerases are identified by a polymerase extension reaction (e.g., a single base extension reaction). See, e.g., Ausebel et al. (eds.), Current Protocols in Molecular Biology. New York: John Wiley & Sons, Inc; Sambrook et al. (1989). Molecular Cloning: A Laboratory Manual. (2nd ed.). Cold Spring Harbor: Cold Spring Harbor Laboratory Press.
For example, identifying compatible polymerases comprises providing a polymerase to test and a reaction buffer appropriate for the polymerase. For polymerases obtained from a commercial supplier (e.g., New England BioLabs, United States Biologicals, Promega, Invitrogen, Worthington, Sigma-Aldrich, Fluka, Finnzymes, Roche, 5 Prime, Qiagen, KAPA Biosystems, Thermo Scientific, Agilent, Life Technologies, etc.), the polymerase is often supplied with an appropriate reaction buffer. An exemplary reaction buffer comprises, e.g., a compatible buffer (e.g., 20 mM Tris-HCl), a salt (e.g., 10 mM KCl), a source of magnesium or manganese (e.g., 2 mM MgSO4; 2 mM MnCl2, etc.), a detergent (e.g., 0.1% TRITON X-100) and has a suitable pH (e.g., approximately pH 8.8 at approximately 25° C.). The activities of some polymerases are improved in the presence of other compounds, such as sulfate and other salts (e.g., 10 mM (NH4)2SO4). Reaction mixtures for polymerase extension reactions are typically tested using Mg^2+ or Mn^2+ as the enzyme cofactor.
Polymerases are tested by providing in the reaction mixture a DNA template, a DNA primer that is complementary to the DNA template, and one or more nucleotides and/or nucleotide analogs. Typical concentrations of template and primer are approximately from 1 to 100 nM and typical concentrations of nucleotides and/or nucleotide analogs are approximately from 1 to 125 μM (e.g., 1 to 125 μM for each nucleotide and/or nucleotide analog and/or 1 to 500 μM total concentration of all nucleotides and/or nucleotide analogs). Templates and primers are synthesized by methods known in the art (e.g., using solid supports and phosphoramidite chemistry) and are available from several commercial suppliers (e.g., Integrated DNA Technologies, Coralville, Iowa).
A pre-annealed primer/template is typically produced for testing polymerases. For example, the primer is typically resuspended in a suitable buffer (e.g., Tris-EDTA, pH 8.0) at a suitable concentration, e.g., at 1 to 500 μM (e.g., at 100 μM) and the template is typically resuspended in a suitable buffer (e.g., Tris-EDTA, pH 8.0) at a suitable concentration, e.g., at 1 to 500 μM (e.g., at 100 μM). […] For example, a pre-annealed primer/template is produced by mixing approximately 100 μl of the approximately 1 to 500 μM (e.g., at 100 μM) primer solution to approximately 100 μl of the approximately 1 to 500 μM (e.g., at 100 μM) template solution in approximately 800 μl of an annealing buffer (e.g., 200 mM Tris, 100 mM potassium chloride, and 0.1 mM EDTA, pH 8.45) to provide a milliliter of primer/template solution. One of skill in the art can scale the volumes and concentrations as appropriate for the concentrations and volumes that are appropriate for the particular analysis. Then, an aliquot (e.g., 100 μl) of the primer/template solution is heated to denature intramolecular and/or intermolecular secondary structures (e.g., by heating at approximately 85° C. to 97° C. (e.g., at approximately 95° C.), e.g., for 1 to 5 minutes (e.g., 2 minutes). Next, the aliquot is cooled to an annealing temperature (e.g., 20° C. to 60° C. (e.g., 25° C.) and incubated for 1 to 10 minutes (e.g., for approximately 5 minutes) to allow the primer and template to anneal to form a primer/template. The primer/template can be diluted in an appropriate substrate dilution buffer (e.g., 20 mM Tris, 10 mM potassium chloride, and 0.01 mM EDTA, pH 8.45; e.g., a 1 to 10 dilution of the annealing buffer described above) for storage. […]

T1 sequence (Q56366 whole entry D141A/E143A/Y409V/A485L, the tested form may be a part): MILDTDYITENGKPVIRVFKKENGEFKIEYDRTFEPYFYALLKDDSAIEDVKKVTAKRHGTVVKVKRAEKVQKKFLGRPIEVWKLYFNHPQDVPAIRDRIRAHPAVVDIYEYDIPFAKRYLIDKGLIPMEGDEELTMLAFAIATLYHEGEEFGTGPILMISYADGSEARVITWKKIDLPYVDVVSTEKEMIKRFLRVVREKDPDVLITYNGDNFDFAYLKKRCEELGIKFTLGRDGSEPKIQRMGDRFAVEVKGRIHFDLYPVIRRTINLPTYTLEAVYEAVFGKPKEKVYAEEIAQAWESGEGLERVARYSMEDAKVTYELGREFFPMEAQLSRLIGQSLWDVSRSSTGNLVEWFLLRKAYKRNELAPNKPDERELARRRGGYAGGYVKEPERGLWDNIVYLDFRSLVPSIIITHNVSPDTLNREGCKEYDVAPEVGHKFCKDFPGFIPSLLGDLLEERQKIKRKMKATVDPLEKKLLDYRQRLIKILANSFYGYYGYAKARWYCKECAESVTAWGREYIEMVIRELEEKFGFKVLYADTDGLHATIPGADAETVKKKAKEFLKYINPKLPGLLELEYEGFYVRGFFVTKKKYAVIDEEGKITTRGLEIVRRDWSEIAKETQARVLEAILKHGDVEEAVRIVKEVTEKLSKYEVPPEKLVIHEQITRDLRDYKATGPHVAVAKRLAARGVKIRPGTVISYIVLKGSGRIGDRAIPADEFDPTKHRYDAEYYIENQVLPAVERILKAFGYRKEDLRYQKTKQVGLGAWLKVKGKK

Row | Molecule | product incorporating the 3′-O-propargyl dNTP (3′-O-propargyl-dNTP; co-factor Mg^2+) | product incorporating the 3′-O-propargyl dNTP (3′-O-propargyl-dNTP; co-factor Mn^2+) | generation of nucleic acid fragments terminated at base-specific positions [1] | incorporation at the 3′ end of the primer [2]
1 | C#CCO[C@H]1C[C@H](n2ccc(N)nc2=O)O[C@@H]1COP(=O)(O)OP(=O)(O)OP(=O)(O)O [3′-O-propargyl-dCTP, 3′-O-propargyl-2′-deoxycytidine-5′-triphosphate] |  |  | generated populations of nucleic acid fragments having a range of sizes corresponding to the expected lengths | successful incorporation
2 | Amplitaq Gold: polymerase enzyme sold under the trade name Ampli-Taq (Life Technologies) | − | − |  | 
3 | C#CCO[C@H]1C[C@H](n2cnc3c(=O)[nH]c(N)nc32)O[C@@H]1COP(=O)(O)OP(=O)(O)OP(=O)(O)O [3′-O-propargyl-dGTP, 3′-O-propargyl-2′-deoxyguanosine-5′-triphosphate] |  |  | generated populations of nucleic acid fragments having a range of sizes corresponding to the expected lengths | successful incorporation
4 | C#CCO[C@H]1C[C@H](n2cnc3c(N)ncnc32)O[C@@H]1COP(=O)(O)OP(=O)(O)OP(=O)(O)O [3′-O-propargyl-dATP, 3′-O-propargyl-2′-deoxyadenosine-5′-triphosphate] |  |  | generated populations of nucleic acid fragments having a range of sizes corresponding to the expected lengths | successful incorporation

The next lines start with results.

Row | product incorporating the 3′-O-propargyl dNTP (3′-O-propargyl-dNTP; co-factor Mg^2+) | product incorporating the 3′-O-propargyl dNTP (3′-O-propargyl-dNTP; co-factor Mn^2+) | Molecule | generation of nucleic acid fragments terminated at base-specific positions [1] | incorporation at the 3′ end of the primer [2]
5 | − | − | rTth: rTth DNA polymerase (protein, UniProt P52028 1-834, looked up) DNA polymerase I, thermostable: MEAMLPLFEPKGRVLLVDGHHLAYRTFFALKGLTTSRGEPVQAVYGFAKSLLKALKEDGYKAVFVVFDAKAPSFRHEAYEAYKAGRAPTPEDFPRQLALIKELVDLLGFTRLEVPGYEADDVLATLAKKAEKEGYEVRILTADRDLYQLVSDRVAVLHPEGHLITPEWLWEKYGLRPEQWVDFRALVGDPSDNLPGVKGIGEKTALKLLKEWGSLENLLKNLDRVKPENVREKIKAHLEDLRLSLELSRVRTDLPLEVDLAQGREPDREGLRAFLERLEFGSLLHEFGLLEAPAPLEEAPWPPPEGAFVGFVLSRPEPMWAELKALAACRDGRVHRAADPLAGLKDLKEVRGLLAKDLAVLASREGLDLVPGDDPMLLAYLLDPSNTTPEGVARRYGGEWTEDAAHRALLSERLHRNLLKRLEGEEKLLWLYHEVEKPLSRVLAHMEATGVRLDVAYLQALSLELAEEIRRLEEEVFRLAGHPFNLNSRDQLERVLFDELRLPALGKTQKTGKRSTSAAVLEALREAHPIVEKILQHRELTKLKNTYVDPLPSLVHPRTGRLHTRFNQTATATGRLSSSDPNLQNIPVRTPLGQRIRRAFVAEAGWALVALDYSQIELRVLAHLSGDENLIRVFQEGKDIHTQTASWMFGVPPEAVDPLMRRAAKTVNFGVLYGMSAHRLSQELAIPYEEAVAFIERYFQSFPKVRAWIEKTLEEGRKRGYVETLFGRRRYVPDLNARVKSVREAAERMAFNMPVQGTAADLMKLAMVKLFPRLREMGARMLLQVHDELLLEAPQARAEEVAALAKEAMEKAYPLAVPLEVEVGMGEDWLSAKG |  | 
6 | − | + | 9° N: 9∘N DNA Polymerase (NEB) (protein, UniProt Q56366 1-775, looked up) DNA polymerase: MILDTDYITENGKPVIRVFKKENGEFKIEYDRTFEPYFYALLKDDSAIEDVKKVTAKRHGTVVKVKRAEKVQKKFLGRPIEVWKLYFNHPQDVPAIRDRIRAHPAVVDIYEYDIPFAKRYLIDKGLIPMEGDEELTMLAFDIETLYHEGEEFGTGPILMISYADGSEARVITWKKIDLPYVDVVSTEKEMIKRFLRVVREKDPDVLITYNGDNFDFAYLKKRCEELGIKFTLGRDGSEPKIQRMGDRFAVEVKGRIHFDLYPVIRRTINLPTYTLEAVYEAVFGKPKEKVYAEEIAQAWESGEGLERVARYSMEDAKVTYELGREFFPMEAQLSRLIGQSLWDVSRSSTGNLVEWFLLRKAYKRNELAPNKPDERELARRRGGYAGGYVKEPERGLWDNIVYLDFRSLYPSIIITHNVSPDTLNREGCKEYDVAPEVGHKFCKDFPGFIPSLLGDLLEERQKIKRKMKATVDPLEKKLLDYRQRAIKILANSFYGYYGYAKARWYCKECAESVTAWGREYIEMVIRELEEKFGFKVLYADTDGLHATIPGADAETVKKKAKEFLKYINPKLPGLLELEYEGFYVRGFFVTKKKYAVIDEEGKITTRGLEIVRRDWSEIAKETQARVLEAILKHGDVEEAVRIVKEVTEKLSKYEVPPEKLVIHEQITRDLRDYKATGPHVAVAKRLAARGVKIRPGTVISYIVLKGSGRIGDRAIPADEFDPTKHRYDAEYYIENQVLPAVERILKAFGYRKEDLRYQKTKQVGLGAWLKVKGKK |  | 
